Results published in patent US5019390A, “Anticancer agent--IMIC” (Research Corporation Technologies, Inc., priority 1987, dated 1991).

What was measured:
P388 leukemia cells [1] = test: Viable P388 leukemia cells in cell culture (trypan blue); details: 48 hours, 37° C.
P388 leukemia cells [2] = test: IP injection study in vivo, P388 leukemia in DBA/2 mice; details: in vivo experiment 4, daily IP injections
Protocol: Mice were 26-27 days old. […] Purina mouse chow was supplied ad libitum.
In experiments 3 & 4 (Tables 12a & 13a) the DBA/2 mouse was used.
DNA was determined on total cells with no differentiation between viable and non-viable cells.

[3] = in vitro experiment 1, 8 ml treatment
[4] = in vitro experiment 2, 2 ml treatment

O=C(O)c1cc(=O)[nH]c(=O)[nH]1 [Orotic Acid, orotic acid]
% Inhibition Based on Ringers Locke Control (P388 leukemia cells [1]; [3]): 11%
Numbers of Viable P388 Cells/ml (P388 leukemia cells [1]; [3]): .66 × 10^6 ± 3500 Cells/ml
% Inhibition Based on Extraction Blank (P388 leukemia cells [1]; [4]): Stimulation
% Inhibition Based on PBS Control (P388 leukemia cells [1]; [4]): Stimulation
Numbers of Viable P388 Cells/ml (P388 leukemia cells [1]; [4]): 1.90 × 10^6 ± 7100 Cells/ml
% Inhibition (numbers of viable P388 cells) (P388 leukemia cells [2]): 38%
DNA Content (P388 leukemia cells [2]): 428 µg/mL
Numbers of Viable P388 Cells/ml (P388 leukemia cells [2]): 4.20 × 10^7 ± 630000 cells/ml
